Assays:
[1] = system: L. donovani LV82 promastigote cultures; assay: Microscopic counts of LV82 promastigote cultures; format: cell-based, Leishmania donovani; conditions: LV82 promastigotes, cell counts daily for three days
LdCYP51 [2] = biological target: T1, LdCYP51 (Leishmania donovani, UniProt A0A3S7WRS7); assay: biochemical
LdCYP5122A1 [3] = biological target: T2, LdCYP5122A1 (Leishmania donovani, UniProt A0A3S7X0B6); assay: biochemical
T2 sequence (A0A3S7X0B6 61-592): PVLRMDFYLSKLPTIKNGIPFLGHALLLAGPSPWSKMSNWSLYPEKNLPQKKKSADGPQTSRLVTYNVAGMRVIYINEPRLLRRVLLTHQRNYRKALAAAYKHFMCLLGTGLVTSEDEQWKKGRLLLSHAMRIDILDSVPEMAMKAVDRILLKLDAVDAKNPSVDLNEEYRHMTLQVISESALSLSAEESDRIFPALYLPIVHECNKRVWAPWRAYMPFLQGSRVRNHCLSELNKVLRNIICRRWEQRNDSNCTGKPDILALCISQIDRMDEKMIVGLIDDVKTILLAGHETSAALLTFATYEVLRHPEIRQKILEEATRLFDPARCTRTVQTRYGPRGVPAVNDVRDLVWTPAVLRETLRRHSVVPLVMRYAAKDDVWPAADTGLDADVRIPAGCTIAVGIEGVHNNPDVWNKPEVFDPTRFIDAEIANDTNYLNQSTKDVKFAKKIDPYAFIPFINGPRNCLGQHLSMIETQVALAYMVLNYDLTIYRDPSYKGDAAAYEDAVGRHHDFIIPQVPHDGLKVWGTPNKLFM

[4] = system: L. donovani LV82 promastigotes; assay: microbe, parasite or virus in culture; conditions: Leishmania donovani, 72 h, read-out: EC50 (L. donovani)
LdCYP5122A1 [5] = biological target: T2, LdCYP5122A1
[6] = system: multiple strains of L. donovani and L. infantum promastigotes; conditions: 1 μg/mL; cited from earlier work
[7] = system: intracellular L. major and L. amazonensis; conditions: cited from earlier work
CYP51 = conditions: 50 μM substrate, TbCPR, NADPH, pH 6.2, 37 °C
CYP5122A1 = conditions: 50 μM substrate, TbCPR, NADPH, pH 6.2, 37 °C
L. donovani CYP51 = L. donovani CYP51 (Leishmania donovani, UniProt A0A3S7WRS7); assay: UV-Vis difference binding spectra of ligands with purified recombinant CYP51
L. donovani CYP5122A1 = biological target: T3, L. donovani CYP5122A1 (Leishmania donovani, UniProt A0A3S7X0B6); assay: UV-Vis difference binding spectra of ligands with purified recombinant CYP5122A1
T3 sequence (A0A3S7X0B6 61-592): T2 sequence (A0A3S7X0B6 61-592)

LdCYP51 [8] = biological target: T1, LdCYP51; conditions: 100 μM
[9] = system: sterol profile of LV82 promastigotes; assay: LC-MS/MS sterol analysis of inhibitor-treated LV82 promastigotes; format: cell-based, Leishmania donovani; conditions: 20 μM clotrimazole vs. DMSO, 24 hr
[10] = system: L. donovani strain 1S2D promastigotes (Ld1S WT and CYP5122A1 mutants); conditions: promastigote growth, 48 hours

T1 sequence (A0A3S7WRS7 32-480): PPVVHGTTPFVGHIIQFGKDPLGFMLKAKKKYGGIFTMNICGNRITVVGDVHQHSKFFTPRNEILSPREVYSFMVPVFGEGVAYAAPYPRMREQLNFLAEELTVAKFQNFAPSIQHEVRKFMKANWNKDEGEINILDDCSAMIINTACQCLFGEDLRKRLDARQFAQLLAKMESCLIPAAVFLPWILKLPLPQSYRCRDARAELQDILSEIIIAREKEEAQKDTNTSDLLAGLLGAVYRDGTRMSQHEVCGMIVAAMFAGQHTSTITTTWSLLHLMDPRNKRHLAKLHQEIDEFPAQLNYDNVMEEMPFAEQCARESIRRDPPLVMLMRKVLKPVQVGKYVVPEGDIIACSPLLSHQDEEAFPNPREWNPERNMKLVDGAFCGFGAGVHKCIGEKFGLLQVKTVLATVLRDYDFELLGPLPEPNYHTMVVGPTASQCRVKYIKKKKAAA
L. donovani CYP51, sequence (A0A3S7WRS7 32-480): as above

| Structure (SMILES) | EC50 [4] [µM] | SI (selectivity index) = IC50 against LdCYP5122A1/IC50 against LdCYP51 (LdCYP5122A1 [5]) | IC50 (LdCYP51 [2]) [µM] | IC50 (LdCYP5122A1 [3]) [µM] | Binding mode with CYP51 (difference binding spectrum) (L. donovani CYP51) | Binding mode with CYP5122A1 (difference binding spectrum) (L. donovani CYP5122A1) | also measured |
| --- | --- | --- | --- | --- | --- | --- | --- |
| C[C@@H]1[C@H](O)[C@@H](C)/C=C/C=C/C=C/C=C/C=C/C=C/C=C/[C@H](O[C@@H]2O[C@H](C)[C@@H](O)[C@H](N)[C@@H]2O)C[C@@H]2O[C@](O)(C[C@@H](O)C[C@@H](O)[C@H](O)CC[C@@H](O)C[C@@H](O)CC(=O)O[C@H]1C)C[C@H](O)[C@H]2C(=O)O [Amphotericin B] | 0.14 ± 0.01 | – | – | – | – | – | Leishmanicidal vs. leishmanistatic effect [1]: leishmanicidal effect; inhibition at 10 µM (LdCYP51 [2]; read-out: % inhibition of LdCYP51 at 10 μM): < 25%; inhibition at 10 µM (LdCYP5122A1 [3]; read-out: % inhibition of LdCYP5122A1 at 10 μM): < 25% |
| C=C1CCN([C@H](C)[C@](O)(Cn2cncn2)c2ccc(F)cc2F)CC1 [Efinaconazole] | 15 ± 1 | 92 | 0.068 ± 0.002 | 6.2 ± 1.7 | – | – | – |
| CC(C)N1CCN(c2ccc(OCC3COC(Cn4cncn4)(c4ccc(Cl)cc4Cl)O3)cc2)CC1 (stereo not shown) [Terconazole] | 13 ± 1 | 140 | 0.083 ± 0.009 | 12 ± 3 | – | – | – |
| C[C@@H](c1nc(-c2ccc(C#N)cc2)cs1)[C@](O)(Cn1cncn1)c1cc(F)ccc1F [Isavuconazole] | 12 | 60 | 0.043 ± 0.007 | 2.6 ± 0.7 | – | – | – |
| CC(=O)N1CCN(c2ccc(OCC3COC(Cn4ccnc4)(c4ccc(Cl)cc4Cl)O3)cc2)CC1 (stereo not shown) [Ketoconazole] | 22 ± 6 | 8.7 | – | 0.42 ± 0.05 | – | – | Growth compared with control [6]: < 20% |
| C[C@@H](c1nc(-c2ccc(C#N)cc2)cs1)[C@](O)(Cn1cncn1)c1ccc(F)cc1F [Ravuconazole] | 12 ± 2 | 248 | 0.049 ± 0.008 | 12 ± 4 | – | – | – |
| Clc1ccc(COC(Cn2ccnc2)c2ccc(Cl)cc2Cl)c(Cl)c1 (stereo not shown) [Miconazole] | – | – | 0.057 ± 0.003 | 1.1 ± 0.2 | – | – | Growth inhibition of intracellular L. major and L. amazonensis [7]: strongly inhibited the growth |
| CC(C)=CCC[C@@H](C)[C@H]1CC[C@H]2C3=C(CC[C@]12C)[C@@]1(C)CC[C@H](O)C[C@@H]1CC3 [Zymosterol, 5α-Cholesta-8,24-dien-3β-ol] | – | – | – | – | atypical difference binding spectrum | did not induce any appreciable change | Oxidation by reconstituted CYP51 (CYP51): oxidized by CYP51 to form hydroxylated metabolites; Oxidation by reconstituted CYP5122A1 (CYP5122A1): No oxidation metabolite formation |
| CC(C)=CCC[C@@H](C)[C@H]1CC[C@@]2(C)C3=C(CC[C@]12C)[C@@]1(C)CC[C@H](O)[C@@H](C)[C@@H]1CC3 [4,14-DMZ, 4α,14α-Dimethylzymosterol] | – | – | – | – | typical type I binding | type I binding | Oxidation by reconstituted CYP51 (CYP51): C14-demethylation; Oxidation by reconstituted CYP5122A1 (CYP5122A1): metabolized by this enzyme |
| Clc1ccc(C(Cn2ccnc2)OCc2csc3c(Cl)cccc23)c(Cl)c1 (stereo not shown) [Sertaconazole] | 7.1 ± 0.5 | 17 | 0.064 ± 0.007 | 1.1 ± 0.2 | – | – | – |
| Clc1ccc(COC(Cn2ccnc2)c2ccc(Cl)cc2Cl)cc1 (stereo not shown) [Econazole] | – | – | 0.046 ± 0.004 | 0.47 ± 0.13 | – | – | – |
| CC(C)=CCC[C@@H](C)[C@H]1CC[C@H]2C3=C(CC[C@]12C)[C@@]1(C)CC[C@H](O)C(C)(C)C1CC3 (stereo partly drawn) [T-MAS, 4,4-dimethylcholesta-8,24-dien-3β-ol] | – | – | – | – | did not elicit any change | type I binding | Oxidation by reconstituted CYP51 (CYP51): no oxidation metabolites were detected; Oxidation by reconstituted CYP5122A1 (CYP5122A1): metabolized by this enzyme |
| OC(Cn1cncn1)(Cn1cncn1)c1ccc(F)cc1F [Fluconazole] | – | – | – | > 100 | type II binding | no specific responses | Growth compared with control [6]: > 80%; Inhibition of intracellular parasites ([7]; 10 μM): < 50%; inhibition at 100 µM (LdCYP5122A1 [3]; read-out: % inhibition of CYP5122A1 at 100 μM): < 20% |
| N=C(N)c1ccc(OCCCCCOc2ccc(C(=N)N)cc2)cc1 [Pentamidine] | 14 ± 1 | – | – | – | – | – | Inhibition of LdCYP51 at 100 μM (LdCYP51 [8]): No inhibition at 100 μM; Inhibition of LdCYP5122A1 at 100 μM (LdCYP5122A1 [5]; 100 μM): No inhibition at 100 μM |
| c1ccc(-c2ccc(C(c3ccccc3)n3ccnc3)cc2)cc1 (stereo not shown) [Bifonazole] | 12 ± 1 | 5.7 | 0.057 ± 0.008 | 0.33 ± 0.07 | – | – | – |
| CC(C)=CCC[C@@H](C)[C@H]1CC=C2C3=C(CC[C@@]21C)[C@@]1(C)CC[C@H](O)C(C)(C)[C@@H]1CC3 [FF-MAS, 14-demethyl-14-dehydrolanosterol] | – | – | – | – | did not elicit any change | type I binding | Oxidation by reconstituted CYP51 (CYP51): no oxidation metabolites were detected; Oxidation by reconstituted CYP5122A1 (CYP5122A1): metabolized by this enzyme |
| CC(C)=CCC[C@@H](C)[C@H]1CC[C@@]2(C)C3=C(CC[C@]12C)[C@@]1(C)CC[C@H](O)C(C)(C)[C@@H]1CC3 [Lanosterol] | – | – | – | – | typical type I binding | type I binding | Oxidation by reconstituted CYP51 (CYP51): C14-demethylation; Oxidation by reconstituted CYP5122A1 (CYP5122A1): metabolized by this enzyme |
| Clc1ccc(CCC(Cn2ccnc2)Sc2c(Cl)cccc2Cl)cc1 (stereo not shown) [Butoconazole] | 1.9 ± 0.4 | 4.4 | 0.073 ± 0.008 | 0.32 ± 0.07 | – | – | Leishmanicidal vs. leishmanistatic effect ([1]; listed as butaconazole): leishmanistatic effect |
| Clc1ccc(C(Cn2ccnc2)OCc2c(Cl)cccc2Cl)c(Cl)c1 (stereo not shown) [Isoconazole] | 6.2 ± 0.5 | – | – | – | – | – | – |
| Clc1ccccc1C(c1ccccc1)(c1ccccc1)n1ccnc1 [Clotrimazole] | – | – | 0.068 ± 0.004 | 0.26 ± 0.08 | type II binding | type II binding | 4,14-Dimethylzymosterol level normalized to DMSO-treated parasites [9]: 43 ± 18; 4CH2OH-LS level normalized to DMSO-treated parasites [9]: 2.3 ± 0.5; 5-Dehydroepisterol level normalized to DMSO-treated parasites [9]: 0.20 ± 0.04; 7-Dehydrodesmosterol level normalized to DMSO-treated parasites [9]: 0^d,**; 14-Methylfecosterol level normalized to DMSO-treated parasites [9]: Accumulated^a,***; 14-Methylzymosterol level normalized to DMSO-treated parasites [9]: 2.3 ± 0.4; Cholesterol (exogenous) level normalized to DMSO-treated parasites [9]: 1.1 ± 0.2; Ergosta-5,7-dienol level normalized to DMSO-treated parasites [9]: 0.79 ± 0.26; Ergostatetraenol level normalized to DMSO-treated parasites [9]: 0 ^d,**; Ergosterol level normalized to DMSO-treated parasites [9]: 0.26 ± 0.07; FF-MAS level normalized to DMSO-treated parasites [9]: Not detected; Lanosterol level normalized to DMSO-treated parasites [9]: 2.7 ± 0.9; T-MAS level normalized to DMSO-treated parasites [9]: Not detected; Zymosterol level normalized to DMSO-treated parasites ([9]; not separated from cholesta-7,24-dienol): 0.018 ± 0.006; 4-Methylzymosterol level normalized to DMSO-treated parasites ([9]; not separated from episterol and fecosterol): 0.025 ± 0.013; Cholesta-7,24-dienol level normalized to DMSO-treated parasites ([9]; not separated from zymosterol): 0.018 ± 0.006; Sensitivity of CYP5122A1 mutants compared with Ld1S WT [10]: no significant differences; Growth inhibition of intracellular L. major and L. amazonensis [7]: strongly inhibited the growth |
| CC(C)=CCC[C@@H](C)[C@H]1CC[C@H]2C3=CC=C4C[C@@H](O)CC[C@]4(C)[C@H]3CC[C@]12C [7-Dehydrodesmosterol] | – | – | – | – | atypical difference binding spectrum | did not induce any appreciable change | Oxidation by reconstituted CYP51 (CYP51): oxidized by CYP51 to form hydroxylated metabolites; Oxidation by reconstituted CYP5122A1 (CYP5122A1): No oxidation metabolite formation |
| CCC(C)n1ncn(-c2ccc(N3CCN(c4ccc(OCC5COC(Cn6cncn6)(c6ccc(Cl)cc6Cl)O5)cc4)CC3)cc2)c1=O (stereo not shown) [Itraconazole] | 6 ± 1.1 | 43 | 0.049 ± 0.009 | 2.1 ± 0.4 | – | – | Growth compared with control [6]: < 20% |

From article PMC11528044 (Nature Communications, 2024)
